From patent US20220054465A1, “(PYRIDIN-2-YL)AMINE DERIVATIVES AS TGF-BETA R1 (ALK5) INHIBITORS FOR THE TREATMENT OF CANCER” (Nexys Therapeutics, Inc., priority 2018, published 2022)

Legend:
[1] = Tissue exposure (liver and heart) in Balb/c mouse after PO dosing, general PK protocol; format: in vivo; settings: PO (intragastric) 10 mg/Kg, liver and heart tissue 0.5-24 h, LC-MS/MS
Protocol: Comparing AUCliver/AUCheart ratio of selected Examples with clinic compounds Galunisertib and LY3200882. Tissue exposure was measured in Balb/c mouse with PO dosing at 10 mpk. […] See Stauber, et al., J. Clin. Pract., 2014, 4(3), 196.
The Balb/c mice were fasted overnight with free access to drinking water prior to treatment. Compounds were formulated in 0.5% CMC/0.5% Tween 80 with or without 1 eq. of NaOH, and administrated intragastrically at 10 mg/Kg. The liver and heart tissues of mice were collected at time points 0.5, 1, 3, 5, 7, 24 h (2 mice per time point) post dose by first sacrificing the animal by C02 inhalation. After flushing with ice saline and removal of excess water on its surface, the liver and heart tissues were weighed and homogenized in 1:5 volumes (w/v) of water with 20% methanol. Tissue samples were kept at −40˜−20° C. prior to analysis. Concentrations of compounds in the liver and hearts were determined using an established liquid chromatography-tandem mass spectrometry (LC-MS/MS) method. Tissue concentration-time data were processed by linear regression analysis. All pharmacokinetic parameters were calculated using non-compartment model of Pharsight Phoenix 8.0.

HEK-Blue TGFβ cell = experiment: HEK-Blue TGFβ cellular reporter gene assay (SEAP readout); format: cell-based; settings: HEK-Blue TGFβ cells stimulated with TGF-β, 22-23 h incubation, SEAP read at 630 nm
Procedure, shortened: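 Cells (2.5×10^5 cells/ml suspension) in DMEM with 0.5% heat-inactivated FBS stimulated with TGF-β (6 ng/ml working solution) plus compound at eight 3-fold dilutions for 22-23 h at 37° C. Supernatant SEAP measured with QUANTI-Blue after 30-40 min, absorbance 630 nm; percent inhibition calculated.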

[2] = Stauber, et al., J. Clin. Pract., 2014, 4(3), 196; cited from earlier work

SMILES | AUCliver/AUCheart [1] | IC50 (HEK-Blue TGFβ cell) [nM] | Cardiac toxicity [2]
CCc1ccc(Oc2ccnc(Nc3cccc(C(C)(C)C(=O)O)c3)c2)c(C)n1 [Example 81, 2-(3-((4-((6-ethyl-2-methylpyridin-3-yl)oxy)pyridin-2-yl)amino)phenyl)-2-methylpropanoic acid] | 124 | 31 | –
CCc1ccc(Oc2ccnc(Nc3cccc(C(C)(C)C(=O)O)c3)c2)c(-c2ccccc2)n1 [Example 104] | 27.8 | 22 | –
CCc1ccc(Oc2ccnc(Nc3cccc(CCc4nn[nH]n4)c3)c2)c(-c2ccccn2)n1 [Example 175, N-(3-(2-(2H-tetrazol-5-yl)ethyl)phenyl)-4-((6-ethyl-[2,2′-bipyridin]-3-yl)oxy)pyridin-2-amine] | 183 | 44 | –
Cc1cccc(-c2nn3c(c2-c2ccnc4ccc(C(N)=O)cc24)CCC3)n1 [Galunisertib, galunisertib, reference compound] | 2.9 | – | limiting factor
CC(C)(O)c1cc(Nc2cc(Oc3cn(C4CC4)nc3C3CCOCC3)ccn2)ccn1 [LY3200882, reference compound] | 1.3 | – | cardiac toxicity was identified as the most relevant
